The source of these data is US20260265675A1, “Methods for Enhanced Gene Expression in Microorganisms” (ALGAE-C INC., priority 2023, published 2026).

Holding throughout (type): cell-based, Chlamydomonas reinhardtii
Data set [1] concerns mVenus. Briefly: mVenus expression after 6-day treatment with SAHA analogs and other HDAC inhibitors (96 well liquid culture, flow cytometry and plate reader). Particulars: for expression of the transgene: mVenus transgene in Chlamydomonas reinhardtii, compared with other histone deacetylase inhibitors; for frequency of mVenus-positive cells / increase of amount of mVenus inside each cell (mean fluorescence intensity) / increase of frequency of mVenus-positive cells: day 3 post-treatment. The protocol:
For the SAHA (vorinostat), belinostat, dacinostat, panobinostat, mocetinostat, entinostat, and romidepsin series of treatments (comparison between various SAHA analogs and other HDAC inhibitors), inoculums of 10^5 cells in late exponential phase of growth were transferred in 200 μL of TAP medium in 96 well plates and were treated with 5 μM of each histone deacetylase inhibitor for 6 days. DMSO was used as a negative control.
(§1) Growth curves were obtained using a Synergy H1 plate reader (Biotek, Agilent), from two or three biological replicates for each strain studied as in (Molino et al., 2022). For SAHA main treatments, 250 μL samples of 50 mL cultures were added in 96 well flat bottom microplates (Corning Costar 96-Well, Cell Culture-Treated, Fisher Scientifics). The OD absorbance was read at 750 nm. Bottom read scan mode mean fluorescence was measured with Excitation (Ex): 500 nm/Emission (Em): 541 nm for mVenus; and bottom read fluorescence Ex: 475 nm/Em: 650 nm for chlorophyll.
(§2) A Cytomics FC500 cytometer equipped with Argon (488 nm) and HeNe (633 nm) lasers were used to measure mVenus emission on the FL1 channel (525/15 nm), and chloroplast fluorescence on the FL4 channel (675/15 nm) (Beckman Coulter Life Sciences). At least 10 000 events were acquired. A homogeneous cloud of intact cells was first gated based on size (FSC) and granulosity (SSC). Then a daughter gate selected the cloud of cells with homogenous chlorophyll autofluorescence. The % of mVenus^+ cells was measured on this daughter population with a gate in the FL1 channel that excluded cells with autofluorescence levels similar to the negative controls. Cells were considered mVenus^+ when both the % of gated mVenus^+ cells (and >0.1%) and mVenus mean fluorescence intensity were higher than the values of the WT controls. Propidium iodide (Thermo Fisher) was used to verify viability and acquired on the FL3 channel (620/20 nm). To select for palmelloid cells, a second gate that included events with a minimum of 2-fold increase in FSC mean intensity was drawn, similarly to (Cheloni and Slaveykova, 2021). In that case, cells were acquired on a Beckman Cytoflex S equipped with violet (405 nm), blue (488 nm), yellow-green (561 nm) and red (638 nm) lasers. Chlorophyll autofluorescence was detected in the PerCP channel (690/50 nm), mVenus on the FITC (525/40BP). Statistics were obtained using BD FlowJo version 10 software (BD Biosciences, La Jolla, CA, USA, 2020).
On the technique in general: In flow cytometry, cells or beads pass a laser one at a time.

The next data set concerns mVenus mRNA. Description: mVenus mRNA relative expression by RT-qPCR (normalized on histone H3). Conditions: day 6. As to the method:
4 mL of a 6 days C. reinhardtii grown culture were harvested and centrifuged in Eppendorf tube for 5 min at 4000 g. Cells were lysed by immersion in liquid nitrogen for 1 min. Total RNA was extracted using Invitrogen™ TRIzol™ reagent (Life technologies, Thermo Fisher Scientifics) according to the manufacturer's protocol with minor modifications, including the addition of NaCl at a final concentration of 100 mM in the isopropanol at the nucleic acids precipitation step. Samples were further treated with Turbo DNase (Invitrogen™ TURBO DNA-free™ Kit, Thermo Fisher Scientifics) according to the manufacturer's instructions. RNA yield and quality were determined with 260 nm/280 nm absorbance ratio obtained on a Nanodrop instrument (Thermo Fisher Scientific). Samples of <100 ng total RNA were subjected to reverse transcription and qPCR amplification in a single reaction using the Luna® Universal One-Step RT-qPCR Kit Protocol (New England Biolabs Canada). Briefly, 1 μl of RNA were subjected to reverse transcription performed at 55° C. for 10 minutes. Initial denaturation was 1 min at 95° C. followed by 45 cycles of denaturation for 10 seconds, extension for 30 seconds at 60° C. […] SYBR Green fluorescence was recorded in the FAM channel of a CFX connect real time system (BioRad). […] Relative mRNA expression levels were determined according to the 2^(−ddCt) method.

In data set [2] the test system is mVenus. Description: mVenus expression after one year of storage, 72 h treatment with histone deacetylase inhibitors (flow cytometry). Conditions: SAHA 5 μM, cells stored for one year after transformation.
Source text: as §2, with “Statistics were obtained using BD FlowJo version 10 software (BD Biosciences, La Jolla, CA, USA, 2020).” left out

Data set [3] deals with mVenus. Description: mVenus expression by flow cytometry after 24 h treatment with silencing inhibitors (96 well liquid culture). As to the method:
For the sirtinol, SAHA, OSS-128167, nicotinamide and sodium butyrate series of treatments (comparison between various HDAC inhibitors), inoculums of 10^5 cells in late exponential phase of growth were transferred in 200 μL of TAP medium in 96 well plates and were treated with 50 μM, 2.5 μM, 100 μM, 1 mM and 5 mM of each histone deacetylase inhibitor respectively for 24 hours; a mix of all inhibitors was also tested. DMSO was used as a negative control.
as §2

In data set [4] the test system is C. reinhardtii. Description: Palmelloid colony formation and motility (microscopy, flow cytometry). As to the method: (§3) For the SAHA main treatments, inoculum of 10^5 cells in late exponential phase of growth were transferred in 50 mL of TAP medium in 125 mL shake flasks and were treated with 5 μM for 12 days (to evaluate mVenus expression overtime), or with 2.5, 5 and 10 μM for 6 days (to evaluate SAHA toxicity over cell viability). DMSO was used as a negative control.
as §2

Data set [5] relates to mVenus. Briefly: mVenus expression followed over 12 days after SAHA treatment in flask cultures (microplate reader and flow cytometer). The protocol: as §3, §1, §2
Data set [6] relates to C. reinhardtii. Description: Chlorophyll content observed by culture colour at higher SAHA concentrations.
Data set [7] concerns C. reinhardtii. Briefly: Cell viability (membrane integrity) by propidium iodide staining, flow cytometry. Conditions: SAHA 2.5, 5 and 10 μM, day 6. The protocol: as §3
as §2, with “To select for palmelloid cells, a second gate that included events with a minimum of 2-fold increase in FSC mean intensity was drawn, similarly to (Cheloni and Slaveykova, 2021). In that case, cells were acquired on a Beckman Cytoflex S equipped with violet (405 nm), blue (488 nm), yellow-green (561 nm) and red (638 nm) lasers.” left out, “Statistics were obtained using BD FlowJo version 10 software (BD Biosciences, La Jolla, CA, USA, 2020).” left out

Data set [8] concerns C. reinhardtii. Briefly: Growth curve / growth kinetic (OD 750 nm). The protocol: […] DMSO was used as a negative control.
as §1

The mark [9] stands for this setting: SAHA 2.5 μM, transformed clones.
[10] abbreviates: SAHA 5 μM, compared to untreated or DMSO treated cells.

`O=C(/C=C/c1cccc(S(=O)(=O)Nc2ccccc2)c1)NO` [Belinostat, (2E)-N-Hydroxy-3-[3-(phenylsulfamoyl)phenyl]prop-2-enamide]: the “expression of the transgene” value in the data set on mVenus [1] is recorded as “substantially increase”.

`O=C(/C=C/c1ccc(CN(CCO)CCc2c[nH]c3ccccc23)cc1)NO` [Dacinostat, (E)-N-hydroxy-3-[4-[[2-hydroxyethyl-[2-(1H-indol-3-yl)ethyl]amino]methyl]phenyl]prop-2-enamide]: the “expression of the transgene” value with mVenus [1] is “substantially increase”.

Consider `Cc1[nH]c2ccccc2c1CCNCc1ccc(/C=C/C(=O)NO)cc1` [Panobinostat, (2E)-N-hydroxy-3-[4-({[2-(2-methyl-1H-indol-3-yl)ethyl]amino}methyl)phenyl]acrylamide], for which the “expression of the transgene” value in the data set on mVenus [1] is reported as “substantially increase”.

As to `O=C(CCCCCCC(=O)Nc1ccccc1)NO` [SAHA, N-hydroxy-N′-phenyloctanediamide], the “increase of relative mVenus mRNA expression over histone H3 mRNA” value in the data set with mVenus mRNA (clone 16, SAHA 5 μM) is 7 fold. In the data set with mVenus mRNA (clone 17, SAHA 5 μM), the “increase of relative mVenus mRNA expression over histone H3 mRNA” value was 6.6 fold. Moreover, the “frequency of cells expressing mVenus” value in the data set with mVenus [2] is on record as “increased”. In the data set with mVenus [3] (setting [9]), the “frequency of cells expressing mVenus” value was “increased” and the “level of expression of mVenus per cell” value is “increased”. Moreover, in the data set on mVenus [3] (clone 16, SAHA 2.5 μM), the “% of mVenus cells” value was 68.1% and the “increase in protein expression (mean fluorescence intensity)” value is reported as 4.6 fold. For the same molecule, the “increase of % of mVenus cells” value in the data set on mVenus [3] (clone 16, SAHA 2.5 μM, versus 13.3% without SAHA) is listed as 5.1 fold. Also, the “palmelloid colonies quantified by flow cytometry” value in the data set with C. reinhardtii [4] (SAHA 5 μM, day 3 and 6 post-treatment, in most cases) is “increased”. Moreover, in the data set on C. reinhardtii [4] (SAHA 5 and 10 μM, 6 days), the “palmelloid colonies (microscopy)” value is “accumulation of small palmelloid colonies”. In the data set with C. reinhardtii [4] (SAHA 20, 40 and 80 μM, increasing concentrations), the “palmelloid colonies (microscopy)” value is on record as “Larger palmelloid colonies”. In addition, the motility entry with C. reinhardtii [4] (SAHA above 2.5 μM) is reported as “progressively lost”. Besides, the “phenotype induced in C. reinhardtii” value in the data set on C. reinhardtii [4] (SAHA, FIG. 6) is recorded as “induces a palmelloid phenotype”. The mVenus fluorescence result with mVenus [5] (SAHA 5 μM at day 0, around day 4-5, all clones) was “steadily increased”. In addition, the “transgene expression over culture period” value in the data set with mVenus [5] (SAHA 5 μM, 12 days, flask cultures) was “steadily increases”. In the data set with mVenus [5] (SAHA 5 μM, around day 7-8), the “decline in mVenus production in stationary phase” value is given as “did not prevent the progressive decline in production”. In addition, in the data set on mVenus [5] (setting [10]), the “mVenus fluorescence per cell at day 12” value is listed as “more mVenus fluorescence per cells” and the “population of mVenus expressing cells at day 12” value was “more frequent population of mVenus expressing cells”. The “% of producing cells (mVenus+) at maximum production” value in the data set on mVenus [5] (SAHA 5 μM, day 5-7, all the clones) was “more than 74%”. In the data set on mVenus [5] (SAHA 5 μM, end of the exponential phase), the “time of maximum production of mVenus” value lay within 5 to 7 days. Moreover, the “% mVenus+ cells at day 12” value in the data set with mVenus [5] (SAHA 5 μM, most clones (except 16)) is given as < 10%. Also, in the data set on mVenus [1] (clone 16, 5 μM), the “frequency of mVenus-positive cells” value was 73.1%, the “increase of amount of mVenus inside each cell (mean fluorescence intensity)” value is listed as 3-4 fold and the “increase of frequency of mVenus-positive cells” value was found to be 8.6 fold. Further, in the data set with mVenus [1] (clone 17, 5 μM), the “frequency of mVenus-positive cells” value was 59.9%, the “increase of amount of mVenus inside each cell (mean fluorescence intensity)” value was 2-5 fold and the “increase of frequency of mVenus-positive cells” value is on record as 27 fold. In addition, in the data set on mVenus [1], the “expression of the transgene” value is given as “substantially increase”. Further, the “chlorophyll content, culture colour” value in the data set on C. reinhardtii [6] (80 μM SAHA) is recorded as “red tint”. The “chlorophyll content, culture colour” value in the data set with C. reinhardtii [6] (20 and 40 μM SAHA) is listed as “more yellow tint”. Besides, in the data set on C. reinhardtii [7], the “% of PI+ cells” value is recorded as “slightly increased” and the “% of transformant cells remaining intact” value is recorded as ~ 90%. Further, the growth kinetic entry with C. reinhardtii [8] (80 μM SAHA) is reported as “totally inhibited”. Also, in the data set with C. reinhardtii [8] (20 and 40 μM SAHA), the growth kinetic result is listed as “inhibited partially”. Besides, the “overall growth of microalgae” value in the data set with C. reinhardtii [8] (SAHA 5 μM, 12 days) was “did not impact the overall growth”.
